Where two headings read alike, the source gives them in different places.
Experiments:
[1] = tested on: U-87 MG human glioblastoma; assay: U87 MG CCK-8 proliferation assay; assay type: cell-based; settings: U-87 MG cells, read-out: U87MG CCK-8
Outline: (§1)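 Cells cultured per ATCC recommendations and treated with 3-fold serial dilutions of compound from 20 μM to 1.02 nM. Viability by CCK-8 absorbance; % inhibition computed relative to DMSO-treated cells, with cell-free medium plus DMSO as blank.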

ERBB2 = ERBB2 (HER2) flow cytometry protein degradation assay in BT-474 cells; assay type: cell-based, human; settings: DC50, BT-474 cells, 24 hr
Method: To analyze total ERBB2 expression by flow cytometry, cells were detached with trypsin, washed, counted and treated with 10 μl/10^6 cells PE-conjugated, anti-ERBB2 monoclonal antibody (R&D Systems, #FAB1129P) for 30 min at 25° C. in dark. Cells were then washed, resuspended in 200 μl 1% paraformaldehyde and analyzed by flow cytometry.
% Inhibition=100−(D−B)/(S−B)*100%. • S: Fluorescence intensity of cells with antibody • D: Fluorescence intensity of compound-treated cells with antibody • B: Fluorescence intensity of cells without antibody

[2] = tested on: MV-4-11 human acute myeloid leukemia; assay: MV-4-11 CCK-8 proliferation assay; assay type: cell-based; settings: MV-4-11 cells, 72 hr
Outline: as §1

HSP90α protein = target: T1, HSP90α protein (Homo sapiens, UniProt P07900); assay: HSP90α-binding FP (BODIPY) assay; settings: FP competition with BODIPY-labeled RNK04010
T1 construct: purchased BPS Bioscience #50298
Outline: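 Fluorescence polarization measured competition with N-terminal human HSP90α, using either FITC-geldanamycin or BODIPY-labelled triazolone RNK04010 as tracer (5 nM final each). Compounds were tested in 2.5-fold dilutions from 20 μM to 5.2 nM, with incubation at 25 °C for 120 min (FITC) or 300 min (BODIPY).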

Compound | EC50 ([1]; Homo sapiens, U-87 MG, 72 h) | ERBB2 degradation (ERBB2) | EC50 ([2]; Homo sapiens, MV4-11) | IC50 (HSP90α protein) | EC50 ([1]; 72 hr) | EC50 [2]
CCOc1cc(N2CCC(C(=O)NCc3ccc(-n4c(O)nnc4-c4cc(C)c(O)cc4O)cc3)CC2)ccc1Nc1ncc2c(n1)N(C)c1ccccc1C(=O)N2C [Compound 027, N-(4-(3-(2,4-dihydroxy-5-methylphenyl)-5-hydroxy-4H-1,2,4-triazol-4-yl)benzyl)-1-(4-((5,11-dimethyl-6-oxo-6,11-dihydro-5H-benzo[e]pyrimido[5,4-b][1,4]diazepin-2-yl)amino)-3-ethoxyphenyl)piperidine-4-carboxamide] | > 1000 nM | C (DC50 > 1000 nM) | 100 to 1000 nM |  |  | 
CCOc1cc(N2CCC(C(=O)NCc3ccc(-n4c(O)nnc4-c4cc(CC)c(O)cc4O)cc3F)CC2)ccc1Nc1ncc2c(n1)N(C)c1ccccc1C(=O)N2C [Compound 037, 1-(4-((5,11-dimethyl-6-oxo-6,11-dihydro-5H-benzo[e]pyrimido[5,4-b][1,4]diazepin-2-yl)amino)-3-ethoxyphenyl)-N-(4-(3-(5-ethyl-2,4-dihydroxyphenyl)-5-hydroxy-4H-1,2,4-triazol-4-yl)-2-fluorobenzyl)piperidine-4-carboxamide] | 100 to 1000 nM | B (DC50 = 100-1000 nM) | 100 to 1000 nM |  |  | 
CCOc1cc(N2CCC(C(=O)NCc3ccc(-n4c(O)nnc4-c4cc(C(C)C)c(O)cc4O)cc3C(F)(F)F)CC2)ccc1Nc1ncc2c(n1)N(C)c1ccccc1C(=O)N2C [Compound 030, N-(4-(3-(2,4-dihydroxy-5-isopropylphenyl)-5-hydroxy-4H-1,2,4-triazol-4-yl)-2-(trifluoromethyl)benzyl)-1-(4-((5,11-dimethyl-6-oxo-6,11-dihydro-5H-benzo[e]pyrimido[5,4-b][1,4]diazepin-2-yl)amino)-3-ethoxyphenyl)piperidine-4-carboxamide] | > 1000 nM | B (DC50 = 100-1000 nM) | 100 to 1000 nM |  |  | 
CCOc1cc(N2CCC(C(=O)N3CCC(CN4CCN(C(=O)CNC(=O)O[C@H]5CC[C@H](Nc6cc(-n7nc(C(F)(F)F)c8c7CC(C)(C)CC8=O)ccc6C(N)=O)CC5)CC4)CC3)CC2)ccc1Nc1ncc2c(n1)N(C)c1ccccc1C(=O)N2C [Compound 122, (1R,4R)-4-((2-carbamoyl-5-(6,6-dimethyl-4-oxo-3-(trifluoromethyl)-4,5,6,7-tetrahydro-1H-indazol-1-yl)phenyl)amino)cyclohexyl (2-(4-((1-(1-(4-((5,11-dimethyl-6-oxo-6,11-dihydro-5H-benzo[e]pyrimido[5,4-b][1,4]diazepin-2-yl)amino)-3-ethoxyphenyl)piperidine-4-carbonyl)piperidin-4-yl)methyl)piperazin-1-yl)-2-oxoethyl)carbamate] | > 1000 nM |  | 100 to 1000 nM | > 1000 nM |  | 
CCNC(=O)c1nnc(-c2cc(CC)c(O)cc2O)n1-c1ccc(CN2CCN(CC3CCN(C(=O)C4CCN(c5ccc(Nc6ncc7c(n6)N(C)c6ccccc6C(=O)N7C)c(OCC)c5)CC4)CC3)CC2)cc1 [Compound 134, 4-(4-((4-((1-(1-(4-((5,11-dimethyl-6-oxo-6,11-dihydro-5H-benzo[e]pyrimido[5,4-b][1,4]diazepin-2-yl)amino)-3-ethoxyphenyl)piperidine-4-carbonyl)piperidin-4-yl)methyl)piperazin-1-yl)methyl)phenyl)-N-ethyl-5-(5-ethyl-2,4-dihydroxyphenyl)-4H-1,2,4-triazole-3-carboxamide] | < 100 nM |  | < 100 nM | < 100 nM |  | 
CCOc1cc(N2CCC(C(=O)N3CCC(CN4CCN(C(=O)O[C@H]5CC[C@H](Nc6cc(-n7nc(C(F)(F)F)c8c7CC(C)(C)CC8=O)ccc6C(N)=O)CC5)CC4)CC3)CC2)ccc1Nc1ncc2c(n1)N(C)c1ccccc1C(=O)N2C [Compound 121, (1R,4R)-4-((2-carbamoyl-5-(6,6-dimethyl-4-oxo-3-(trifluoromethyl)-4,5,6,7-tetrahydro-1H-indazol-1-yl)phenyl)amino)cyclohexyl 4-((1-(1-(4-((5,11-dimethyl-6-oxo-6,11-dihydro-5H-benzo[e]pyrimido[5,4-b][1,4]diazepin-2-yl)amino)-3-ethoxyphenyl)piperidine-4-carbonyl)piperidin-4-yl)methyl)piperazine-1-carboxylate] | > 1000 nM |  | > 1000 nM | > 1000 nM |  | 
CCOc1cc(N2CCC(C(=O)N3CCC(CN4CCN(Cc5ccc(-n6c(O)nnc6-c6cc(CC)c(O)cc6O)cc5F)CC4)CC3)CC2)ccc1Nc1ncc2c(n1)N(C)c1ccccc1C(=O)N2C [Compound 019, 2-((2-ethoxy-4-(4-(4-((4-(4-(3-(5-ethyl-2,4-dihydroxyphenyl)-5-hydroxy-4H-1,2,4-triazol-4-yl)-2-fluorobenzyl)piperazin-1-yl)methyl)piperidine-1-carbonyl)piperidin-1-yl)phenyl)amino)-5,11-dimethyl-5,11-dihydro-6H-benzo[e]pyrimido[5,4-b][1,4]diazepin-6-one] | 100 to 1000 nM |  | < 100 nM | 100 to 1000 nM |  | 
CCOc1cc(N2CCC(C(=O)N3CCN(Cc4ccc(-n5c(O)nnc5-c5cc(C(C)C)c(O)cc5O)cc4)[C@H](C)C3)CC2)ccc1Nc1ncc2c(n1)N(C)c1ccccc1C(=O)N2C [Compound 051, (R)-2-((4-(4-(4-(4-(3-(2,4-dihydroxy-5-isopropylphenyl)-5-hydroxy-4H-1,2,4-triazol-4-yl)benzyl)-3-methylpiperazine-1-carbonyl)piperidin-1-yl)-2-ethoxyphenyl)amino)-5,11-dimethyl-5,11-dihydro-6H-benzo[e]pyrimido[5,4-b][1,4]diazepin-6-one] | < 100 nM |  | < 100 nM | 100 to 1000 nM |  | 
CCOc1cc(N2CCC(C(=O)N3CCC(N4CCN(Cc5ccc(-n6c(O)nnc6-c6cc(C(C)C)c(O)cc6O)cc5F)CC4)CC3)CC2)ccc1Nc1ncc2c(n1)N(S(C)(=O)=O)c1ccccc1C(=O)N2C [Compound 059, 2-((4-(4-(4-(4-(4-(3-(2,4-dihydroxy-5-isopropylphenyl)-5-hydroxy-4H-1,2,4-triazol-4-yl)-2-fluorobenzyl)piperazin-1-yl)piperidine-1-carbonyl)piperidin-1-yl)-2-ethoxyphenyl)amino)-5-methyl-11-(methylsulfonyl)-5,11-dihydro-6H-benzo[e]pyrimido[5,4-b][1,4]diazepin-6-one] | < 100 nM |  | < 100 nM | < 100 nM |  | 
CCOc1cc(N2CCC(C(=O)N3CCC(CN4CCN(Cc5ccc(-n6c(C(=O)NC7(C)CC7)nnc6-c6cc(CC)c(O)cc6O)cc5)CC4)CC3)CC2)ccc1Nc1ncc2c(n1)N(S(C)(=O)=O)c1ccccc1C(=O)N2C [Compound 083, 4-(4-((4-((1-(1-(3-ethoxy-4-((5-methyl-11-(methylsulfonyl)-6-oxo-6,11-dihydro-5H-benzo[e]pyrimido[5,4-b][1,4]diazepin-2-yl)amino)phenyl)piperidine-4-carbonyl)piperidin-4-yl)methyl)piperazin-1-yl)methyl)phenyl)-5-(5-ethyl-2,4-dihydroxyphenyl)-N-(1-methylcyclopropyl)-4H-1,2,4-triazole-3-carboxamide] | < 100 nM |  | < 100 nM | < 100 nM |  | 
CCOc1cc(N2CCC(C(=O)N3CCC(CN4CCN(CCCOc5ccc(Nc6ccc(-n7nc(C(F)(F)F)c8c7CC(C)(C)CC8=O)cc6C(N)=O)cc5)CC4)CC3)CC2)ccc1Nc1ncc2c(n1)N(S(C)(=O)=O)c1ccccc1C(=O)N2C [Compound 068, 5-(6,6-dimethyl-4-oxo-3-(trifluoromethyl)-4,5,6,7-tetrahydro-1H-indazol-1-yl)-2-((4-(3-(4-((1-(1-(3-ethoxy-4-((5-methyl-11-(methylsulfonyl)-6-oxo-6,11-dihydro-5H-benzo[e]pyrimido[5,4-b][1,4]diazepin-2-yl)amino)phenyl)piperidine-4-carbonyl)piperidin-4-yl)methyl)piperazin-1-yl)propoxy)phenyl)amino)benzamide] | > 1000 nM |  | 100 to 1000 nM | > 1000 nM |  | 
(1R,4R)-4-((2-carbamoyl-5-(6,6-dimethyl-4-oxo-3-(trifluoromethyl)-4,5,6,7-tetrahydro-1H-indazol-1-yl)phenyl)amino)cyclohexyl 4-(1-(4-((5,11-dimethyl-6-oxo-6,11-dihydro-5H-benzo[e]pyrimido[5,4-b][1,4]diazepin-2-yl)amino)-3-ethoxyphenyl)piperidine-4-carbonyl)piperazine-1-carboxylate [Compound 104] |  |  |  | > 1000 nM | > 1000 nM | > 1000 nM
CCOc1cc(N2CCC(C(=O)NCCCNC(=O)O[C@H]3CC[C@H](Nc4cc(-n5nc(C(F)(F)F)c6c5CC(C)(C)CC6=O)ccc4C(N)=O)CC3)CC2)ccc1Nc1ncc2c(n1)N(S(C)(=O)=O)c1ccccc1C(=O)N2C [Compound 095, (1R,4R)-4-((2-carbamoyl-5-(6,6-dimethyl-4-oxo-3-(trifluoromethyl)-4,5,6,7-tetrahydro-1H-indazol-1-yl)phenyl)amino)cyclohexyl (3-(1-(3-ethoxy-4-((5-methyl-11-(methylsulfonyl)-6-oxo-6,11-dihydro-5H-benzo[e]pyrimido[5,4-b][1,4]diazepin-2-yl)amino)phenyl)piperidine-4-carboxamido)propyl)carbamate] | > 1000 nM |  | 100 to 1000 nM | > 1000 nM |  | 
